Measured values: patent publication US20260275242A1, “PHOSPHONATE-FREE CHELATING AGENTS AND METHODS FOR FABRIC CARE” (THE PROCTER & GAMBLE COMPANY, priority 2023, published 2026)

Experiments:
Type in all cases: physicochemical
[1] = pKa of chelating agents (Table 1); details: successive pKa values; (A)/(B) printed beside the catechin values
Text: Chelation is a type of bonding of ions and molecules to metal ions. It involves the formation or presence of two or more separate coordinate bonds between a ligand and a metal atom. Without being bound by theory, the stain removal effectiveness of a composition comprising one or more chelating agents may depend at least in part on the ability of the chelating agent(s) to bind to iron, which may be present in some stains, such as fruit or beverage stains. Several factors may impact a chelating agent's ability to bind to iron. These factors may include the pKa of the chelating agent compared to the wash pH, and the affinity of the chelating agent to bind with other metals, materials, or compositions in the wash.
Various embodiments may provide or employ a composition that comprises one or more chelating agents having a pKa that is near to or less than the wash pH. […] Various embodiments may also employ a wash liquor pH of about 10 or less, about 9.5 or less, less than about 9, preferably from about 6.5 to about 8.5, most preferably from about 7.0 to about 8.5. They may also include the step of maintaining the pH of the wash liquor at about 10 or less, about 9.5 or less, less than about 9, preferably from about 6.5 to about 8.5, most preferably from about 7.0 to about 8.5.

[2] = Calcium binding efficiency, logK(β110) (Table 1); details: one metal, one ligand, no protons
Text: (§1) The binding efficiencies may be expressed as a binding constant. A binding constant (also called formation constant or stability constant) is an equilibrium constant for the formation of a complex in solution. It is a measure of the strength of the interaction between the reagents that come together to form the complex. As an example, various stains may comprise catechins as shown in Formula (13).
(§2) In Table 1, the reaction between metals and ligands is described in terms of log K(β110). In this context, K, is the equilibrium constant for the reaction between ligands and metals. The higher K, the more metal is bound. This is illustrated in the following example.
(§3) β, represents the binding efficiency and receives some subscripts (βmlh) to indicate how many metals (m), ligands (l), and protons (h) respectively are involved.

[3] = Iron binding efficiency, logK(β110) (Table 1); details: one metal, one ligand, no protons
Text: as §1, §2, §3

Compound | pKa [1] | Ca^2+ logK(β110) [2] | Fe (III) logK(β110) [3]
COC(=O)c1cc(O)c(O)c(O)c1 [Methyl Gallate] | 8.7 | 6.7 | 14.7
CCOC(=O)c1cc(O)c(O)c(O)c1 [Ethyl Gallate] | 8.7 | 6.7 | 14.7
